We go through six compounds from US20070248702A1, “Use of CB2 receptors agonists for the treatment of Huntington's disease” (priority 2004, published 2007).

Assay [1] deals with rats with unilateral injections of malonate. Nature of the assay: GABA contents in basal ganglia by HPLC, malonate rat model of Huntington's disease. The format is in vivo. As to conditions: for GABA contents Globus pallidus / GABA contents Substantia nigra: % of lesioned side over non-lesioned side, mean ± SEM, i.p. 30 min before and 2 h after malonate (ACEA 3 mg/kg, HU-308 5 mg/kg, CBD 5 mg/kg), 48 h; for malonate-induced GABA loss in the striatum (caudate-putamen): FIG. 1, result in words, HU-308 5 mg/kg; for malonate-induced GABA loss in the striatum (caudate-putamen) / neurochemical deficits induced by malonate in the caudate-putamen and other basal ganglia structures: CBD 5 mg/kg i.p.; for neurochemical deficits induced by malonate in the caudate-putamen and other basal ganglia structures: Table 1 and FIG. 1, result in words, ACEA 3 mg/kg. As for the experimental part:
(§1) Animals. Male Sprague-Dawley rats were housed in a room with controlled photoperiod (08:00-20:00 light) and temperature (23±1° C.). […] Each treatment group consisted of at least six animals.
(§2) Intrastriatal injection of malonate. Rats were injected stereotaxically (coordinates: +0.8 mm anterior, 2.9 mm lateral from the bregma, 4.5 mm ventral from the dura mater) into the left striatum with 2 M malonate in a volume of 1 μl and used for experimental analysis 48 h later.
(§3) Cannabinoid treatment. […] All compounds were prepared in Tween 80-saline solution (1:16 volume per volume). The volume dosage for i.p. administration was 2 ml/kg body weight. The doses used for each experiment were selected from the previous studies on the pharmacological properties of these compounds.
(§4) Animals were killed 46 hours after the second cannabinoid injection and their brains were rapidly removed and frozen in 2-methylbutane cooled in dry ice, and stored until evaluation of the degree of malonate-induced striatal injury.
(§5) Sample preparation. Brains coronal slices (around 500 μm thick) were made at levels containing the substantia nigra, the globus pallidus and the caudate-putamen, according to Palkovits M. and Brownstein J. (Maps and Guide to Microdissection of the Rat Brain. Elsevier, 1988). Subsequently, the three structures were dissected and homogenized in 20-40 volumes of cold 150 mM potassium phosphate buffer, pH 6.8. Each homogenate was distributed for the analysis of the contents of GABA or dopainine and its major metabolite, 3,4-dihydroxyphenylacetic acid (DOPAC), by High Performance Liquid Chromatography (HPLC) coupled to electrochemical detection, according to previously described methods (Romero J. et al., Brain Res. 694: 223-32, 1995; González S. et al., Life Sci. 65: 327-36, 1999). An aliquot of each homogenate was used to analyze protein concentration (Lowry O. H. et al., J. Biol. Chem. 193: 265-75, 1951).
Analysis of GABA contents. This analysis was carried out by HPLC with electrochemical detection according to the procedure described by Smith S, and Sharp T. (J. Chromat. 652: 228-33, 1994). The aliquot of the homogenate used for the direct measurement of GABA content was diluted 1:2 with 0.4 N perchloric acid containing 0.4 mM sodium disulfite, 0.90 mM EDTA and 10 μg/ml β-aminobutyrate (BABA) as an internal standard. Following, samples were centrifuged for 3 min (15,000 g) and 50 μl of each supernatant removed and neutralized with 100 μl of 0.1 N NaOH. Samples were stored at 4° C. until analysis. This was performed by derivatization of GABA and BABA (β-aminobutyrate) through the addition of 15 μl of o-phthaldehyde (OPA)-sulfite solution (14.9 mM OPA, 45.4 mM sodium sulfite and 4.5% ethanol in 327 mM borate buffer, pH 10.4). Samples were allowed to react at room temperature for a period of 10 min. After this time, 20 μl of each reaction mixture (including derivatizated calibration standards composed of known concentrations of GABA and BABA) were injected into the HPLC system. The HPLC system consisted of the following elements. The pump was an isocratic Spectra-Physics 8810. The column was a RP-18 (Spherisorb ODS-2; 150 mm, 4.6 mm, 5 μm particle size; Waters, Mass., USA). The mobile phase, previously filtered and degassed, consisted of 0.06 M sodium dihydrogen phosphate, 0.06 mM EDTA and 20-30% methanol (pH 4.4) and the flow rate was 0.8 ml/min. The effluent was monitored with a Metrohm bioanalytical system amperometric detector using a glassy carbon electrode. The potential was 0.85V relative to an Ag/AgCl reference electrode with a sensitivity of 50 nA (approx. 2 ng per sample). The signal was recorded on a Spectra-Physics 4290 integrator. The approximate retention times for GABA and BABA were 8 and 16 min, respectively. […] Values were expressed as μg/mg of protein.

Assay [2] shares this test system. Nature of the assay: dopamine and DOPAC contents in caudate-putamen by HPLC, malonate rat model. In kind it is in vivo. The following applies: % of lesioned side over non-lesioned side, mean ± SEM; i.p. 30 min before and 2 h after malonate (ACEA 3 mg/kg, HU-308 5 mg/kg, CBD 5 mg/kg); 48 h. As for the experimental part: as §1, §2, §3, §4, §5
Assay [3] has the same test system. In words: in situ hybridization of neuronal-specific enolase mRNA, malonate rat model. The format is in vivo. The following applies: FIG. 2, result in words; HU-308 5 mg/kg, CBD 5 mg/kg i.p. As for the experimental part: Animals were killed 46 hours after the second cannabinoid injection and their brains were rapidly removed and frozen in 2-methylbutane cooled in dry ice, and stored until evaluation of the degree of malonate-induced striatal injury. The protocol and results concerning the neurochemical evaluation of the neuronal injury and the effect of the various types of cannabinoids are reported in Example 2. The protocol and results concerning the effect of the various types of cannabinoids on the mRNA levels of neuron specific enolase are reported in Example 3.
(§6) Brain slicing. Coronal sections, 40 μm-thick, were cut in a cryostat, according to the Paxinos G. and Watson C. atlas (Rat brain in stereotaxic coordinates. Academic Press, London, 1986). Sections were thaw-mounted onto Superfrost Plus glass slides and dried briefly at 30° C. and stored at −80° C. until used.
Analysis of mRNA levels of NSE. Briefly, sections were fixed in 4% paraformaldehyde for 5 min and, after rinsing twice in PBS, were acetylated by incubation in 0.25% acetic anhydride, prepared in 0.1 M triethanolamine/0.15 M sodium chloride (pH 8.0), for 10 min. […]
(§7) The oligonucleotide probe was labeled at the 3′-end with [^35S]-dATP using terminal deoxynucleotidyl-transferase. […] The intensity of the hybridization signal was assessed by measuring the grey levels in the films with a computer-assisted video densitometer. […]

For assay [4] the test system is unchanged. In words: in situ hybridization of SOD-1 and SOD-2 mRNA, malonate rat model. In kind it is in vivo. The following applies: result in words, HU-308 5 mg/kg i.p. The method, then:
The protocol and results concerning possible sites of action are reported in Example 6.
as §6
Analysis of mRNA levels of NSE. Briefly, sections were fixed in 4% paraformaldehyde for 5 min and, after rinsing twice in PBS, were acetylated by incubation in 0.25% acetic anhydride, prepared in 0.1 M triethanolamine/0.15 M sodium chloride (pH 8.0), for 10 min. Sections were rinsed in 0.3 M sodium chloride/0.03 M sodium citrate, pH 7.0, dehydrated and delipidated by ethanol/chloroform series. For hybridization, the following synthetic probe of 45 nucleotides was used. […]
as §7
Superoxide dismutase-1 and -2 (SOD-1 and SOD-2) were used as markers of endogenous antioxidant defenses. Their relative levels in lesioned vs. non-lesioned areas of malonate injected rats were measured by in situ hybridization. […]

The next assay concerns the target human CB1 receptors (Homo sapiens, UniProt P21554). The following applies: read-out: IC50 human CB1 receptors; as disclosed in WO 03/064359; cited from earlier work.
The test system of assay [5] is mice treated with the neurotoxin MPTP. The following applies: WO 03/064359; cited from earlier work.
Assay [6] concerns rats with unilateral lesions of the caudate-putamen generated by local application of malonate. The following applies: Lastres-Becker et al., Neuroreport 14: 813-6, 2003; effects not dose-dependent; cited from earlier work.
In assay [7] the test system is rats systemically exposed to 3-nitropropionic acid. As to conditions: Lastres-Becker et al., Neuroreport 15: 2375-9, 2004; cited from earlier work.

Sequence of human CB1 receptors (P21554 whole entry): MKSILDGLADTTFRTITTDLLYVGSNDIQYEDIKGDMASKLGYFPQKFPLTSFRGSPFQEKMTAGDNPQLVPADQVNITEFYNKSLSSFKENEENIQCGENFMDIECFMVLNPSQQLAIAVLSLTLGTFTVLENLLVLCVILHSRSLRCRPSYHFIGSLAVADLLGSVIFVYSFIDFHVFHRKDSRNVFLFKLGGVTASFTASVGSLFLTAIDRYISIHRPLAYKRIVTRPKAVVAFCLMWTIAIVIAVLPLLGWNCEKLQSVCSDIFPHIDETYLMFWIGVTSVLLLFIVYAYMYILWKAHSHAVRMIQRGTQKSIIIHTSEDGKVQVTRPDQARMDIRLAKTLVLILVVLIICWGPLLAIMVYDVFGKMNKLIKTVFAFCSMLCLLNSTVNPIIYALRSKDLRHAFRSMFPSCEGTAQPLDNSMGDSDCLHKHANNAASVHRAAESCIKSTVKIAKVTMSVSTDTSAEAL

The term IC50 denotes the concentration that inhibits the measured activity by half. In the case of `CCCCCCC(C)(C)c1cc(OC)c(C2C=C(CO)C3CC2C3(C)C)c(OC)c1` (single isomer, unassigned; (+)) [HU-308, (+){4-[4-(1,1-dimethylheptyl)-2,6-dimethoxyphenyl]-6,6-dimethyl-bicyclo[3.1.1]hept-2-en-2-yl}-methanol], in assay [1], the “GABA contents Globus pallidus” value turned out to be 90.1 ± 13.4 %, the “GABA contents Substantia nigra” value is 93.8 ± 7.7% and the “malonate-induced GABA loss in the striatum (caudate-putamen)” value is “reduced malonate-induced GABA loss”. In addition, the “GABA contents in the lesioned side” value in assay [1] (striatum, lesioned side, malonate + HU-308 5 mg/kg i.p.) is 1.12±0.08 μg/mg of protein. Further, the “GABA contents in the non-lesioned side” value in assay [1] (striatum, non-lesioned side, malonate + HU-308 5 mg/kg i.p.) is reported as 1.96±0.11 μg/mg of protein. Besides, in assay [2], the “DA contents Caudate-putamen” value is 34.1 ± 5.2 % and the “DOPAC contents Caudate-putamen” value was 53.9 ± 5.7 %. In addition, in assay [3], the “mRNA levels for neuronal-specific enolase in the caudate-putamen” value was “partially prevented the malonate-induced reduction”. For the same compound, the “mRNA levels for SOD-1 in the caudate-putamen” value in assay [4] (FIG. 5A) is given as “unable to prevent the malonate-induced decrease”. The “mRNA levels for SOD-2 in the caudate-putamen” value in assay [4] (FIG. 5B) is “unable to prevent the malonate-induced decrease”. Besides, on human CB1 receptors, the IC50 was 3.6 µM. Moreover, the “cell death in the substantia nigra” value in assay [5] was “reduces the extent of cell death in the substantia nigra”.
`CCCCC/C=C\C/C=C\C/C=C\C/C=C\CCCC(=O)NCCCl` [ACEA, arachidonyl-2-chloroethylamide]: in assay [1], the “GABA contents Globus pallidus” value is recorded as 61.1 ± 12.2 %; the “GABA contents Substantia nigra” value turned out to be 92.1 ± 5.2%; the “neurochemical deficits induced by malonate in the caudate-putamen and other basal ganglia structures” value is recorded as “did not influence neurochemical deficits”. In assay [2], the “DA contents Caudate-putamen” value was 23.8 ± 5.4 % and the “DOPAC contents Caudate-putamen” value stood at 44.9 ± 9.7 %.
With `C=C(C)[C@@H]1CCC(C)=C[C@H]1c1c(O)cc(CCCCC)cc1O` [CBD, cannabidiol], in assay [1], the “GABA contents Globus pallidus” value was found to be 54.4 ± 8.2 %; the “GABA contents Substantia nigra” value is 86.3 ± 8.6%; the “malonate-induced GABA loss in the striatum (caudate-putamen)” value was “slightly reduce the GABA depletion”; the “neurochemical deficits induced by malonate in the caudate-putamen and other basal ganglia structures” value is on record as “lack of neuroprotectant effects”. The “DA contents Caudate-putamen” value in assay [2] came out at 12.6 ± 4.9 %. In addition, in assay [3], the “mRNA levels for neuronal-specific enolase in the caudate-putamen” value is “totally inactive”.
With `Cc1c(C(=O)NN2CCCCC2)nn(-c2ccc(Cl)cc2Cl)c1-c1ccc(Cl)cc1` [SR141716], the “effect on malonate toxicity” value in assay [6] is recorded as “enhanced malonate toxicity”.
`CCCCCc1cc(O)c2c(c1)OC(C)(C)[C@@H]1CCC(C)=C[C@@H]21` [Δ^9-THC, Δ^9-tetrahydrocannabinol]: in assay [6], the “effect on malonate toxicity” value is “pro-toxic”. Further, in assay [7], the “neuroprotection in 3-nitropropionic acid rats” value is “neuroprotectant”.
Turning to SR144528, the “effect of co-administration on the HU-308 reduction of malonate-induced GABA depletion in the caudate-putamen” value in assay [1] (FIG. 3, SR144528 1 mg/kg i.p. with HU-308 5 mg/kg i.p.) is recorded as “completely reversed”.
